The source of these data is ChEMBL document CHEMBL4400566, “Discovery of new ureido benzenesulfonamides incorporating 1,3,5-triazine moieties as carbonic anhydrase I, II, IX and XII inhibitors” (Bioorg Med Chem, 2019).

As a reminder, the pKi is the negative decadic logarithm of the Ki, by convention in mol/L. A low value points to a large Ki.

The experiment deals with Carbonic anhydrase 9 (Homo sapiens, UniProt Q16790).

pKi: −log10 of the molar value.

Description: Inhibition of recombinant human carbonic anhydrase 9 incubated for 15 mins prior to testing measured for 5 to 10 secs by phenol red-based stopped-flow CO2 hydration assay

With `NS(=O)(=O)c1ccc(NC(=O)Nc2nc(Nc3ccccc3)nc(N3CCCCC3)n2)cc1`, the negative-log Ki (pKi) was 7.49. The value for `NS(=O)(=O)c1ccc(NC(=O)Nc2nc(Cl)nc(Nc3ccc(Cl)cc3)n2)cc1` was 7.36; that for `NS(=O)(=O)c1ccc(NC(=O)Nc2nc(Nc3ccc(S(N)(=O)=O)cc3)nc(N3CCCCC3)n2)cc1` was 7.55; that for `NS(=O)(=O)c1ccc(NC(=O)Nc2nc(Nc3ccc(F)cc3)nc(N3CCCCC3)n2)cc1` was 6.82. The value for `NS(=O)(=O)c1ccc(NC(=O)Nc2nc(Nc3ccc(F)cc3)nc(N3CCOCC3)n2)cc1` was 6.73. With `NS(=O)(=O)c1ccc(NC(=O)Nc2nc(Nc3ccccc3)nc(N3CCOCC3)n2)cc1` the figure was 7.43; with `CN(C)c1nc(NC(=O)Nc2ccc(S(N)(=O)=O)cc2)nc(Nc2ccc(Cl)cc2)n1`, 7.42.

In turn, `CN(C)c1nc(NC(=O)Nc2ccc(S(N)(=O)=O)cc2)nc(Nc2ccc(Cl)c(Cl)c2)n1` showed a pKi of 7.63. Turning to `NS(=O)(=O)c1ccc(NC(=O)Nc2nc(Nc3ccc(Cl)c(Cl)c3)nc(N3CCCCC3)n2)cc1`, the pKi is 7.06. Compared with the last compound, the pKi is 0.57 log units lower. With `NS(=O)(=O)c1ccc(NC(=O)Nc2nc(Cl)nc(Nc3ccc(Cl)c(Cl)c3)n2)cc1` the figure was 7.45; with `NS(=O)(=O)c1ccc(NC(=O)Nc2nc(Nc3ccc(Cl)cc3)nc(N3CCOCC3)n2)cc1`, 7.54. For the compound `NS(=O)(=O)c1ccc(NC(=O)Nc2nc(Nc3ccc(Cl)c(Cl)c3)nc(N3CCOCC3)n2)cc1`, the pKi is 6.98. The value for `NS(=O)(=O)c1ccc(NC(=O)Nc2nc(Cl)nc(Nc3ccccc3)n2)cc1` was 7.85. `NS(=O)(=O)c1ccc(NC(=O)Nc2nc(Cl)nc(Nc3ccc(F)cc3)n2)cc1` had a negative logarithm of the Ki (pKi) of 7.33.

On to `CN(C)c1nc(NC(=O)Nc2ccc(S(N)(=O)=O)cc2)nc(Nc2ccc(F)cc2)n1`, for which the negative logarithm of the Ki (pKi) is 7.17. The value for `CN(C)c1nc(NC(=O)Nc2ccc(S(N)(=O)=O)cc2)nc(Nc2ccccc2)n1` was 7.72; that for `CN(C)c1nc(NC(=O)Nc2ccc(S(N)(=O)=O)cc2)nc(Nc2ccc(S(N)(=O)=O)cc2)n1` was 7.84. Take `NS(=O)(=O)c1ccc(NC(=O)Nc2nc(Cl)nc(Nc3ccc(S(N)(=O)=O)cc3)n2)cc1`: the pKi is 7.93.

`NS(=O)(=O)c1ccc(NC(=O)Nc2nc(Nc3ccc(Cl)cc3)nc(N3CCCCC3)n2)cc1` showed a negative logarithm of the Ki (pKi) of 7.36. For the compound `NS(=O)(=O)c1ccc(NC(=O)Nc2nc(Nc3ccc(S(N)(=O)=O)cc3)nc(N3CCOCC3)n2)cc1`, the negative logarithm of the Ki (pKi) was 7.60.
